# System: Aspergillus niger
# Experiment: Adhesion test with molds on silicone sealant DC3390 film
# Conditions: 1 wt. % surfactant in silicone sealant DC3390; adhered Aspergillus niger spores (CFU) after 48 hours at 25° C.; sealant with no active substance = 100
# Method: The silicone sealant DC3390 was used. 1 wt. % of surfactant was added and homogenized in the Speedmixer. The surfactants indicated in Table 1 were tested in comparison with the joint sealing compound without the addition of the surfactants being tested. The resulting composition was spread as the film (22×22×2 mm) and left to harden in air. The resulting test specimen was disinfected with 70% ethanol for 10 minutes, then washed with distilled water and dried. The test specimens were subsequently coated with a germ suspension of Aspergillus niger and incubated for one hour. The germ suspension was then siphoned off and the specimen was washed twice. The specimens were transferred into sterile tubes that contained 5 ml of inactivation solution and shaken on a shaker for 10 minutes at 400 rpm. To determine the number of adhered spores, firstly the specimens were placed in sterile 6-well plates and covered with wort agar with INT, secondly a determination of the colony count of the inactivation solution was carried out by the inoculation plate method. After 48 hours incubation at 25° C., the number of colony forming units (CFU) was subsequently determined.
smiles,measurement,value
"CCO[Si](CCC(F)(F)C(F)(F)C(F)(F)C(F)(F)C(F)(F)C(F)(F)F)(OCC)OCC [DYNASYLAN F8261, perfluorinated octyltriethoxysilane]",Mold adhesion [%],80%
